Test results taken from US20060069132A1, “Azolecarboxamide herbicides” (priority 2004, published 2006).

Assays:
Experiment in all cases: Test F pre-/postemergence herbicide test
downy bromegrass = assay type: in vivo, Bromus tectorum; details: Preemergence
Excerpt: (§1) Seeds of plant species selected from annual blugrass (Poa annua L.), blackgrass (Alopecurus myosuroides Huds.), catchweed bedstraw (Gallium aparine L.), common chickweed (Stellaria media (L.) Vill./Cyr.), downy bromegrass (Bromus tectorum L.), green foxtail (Setaria viridis (L.) Beauv.), Italian ryegrass (Lolium multiflorum Lam.), kochia (Kochia scoparia (L.). Schrad.), lambsquarters (Chenopodium album L.), littleseed canarygrass (Phalaris minor Retz.), pigweed (Amaranthus retroflexus L.), Russian thistle (Salsola kali L. ssp. Ruthenica (Iljin) Soo), wild buckwheat (Polygonum convolvulus L.), wild mustard (Sinapis arvensis L.), wild oat (Avena fatua L.), windgrass (Apera spica-venti (L.) Beauv.), winter barley (Hordeum vulgare L.), and wheat (Triticum aestivum L.) were planted and treated preemergence with test chemicals formulated in a non-phytotoxic solvent mixture which included a surfactant.
(§2) At the same time, plants selected from these crop and weed species were treated with postemergence applications of some of the test chemicals formulated in the same manner. Plants ranged in height from 2 to 18 cm (1- to 4-leaf stage) for postemergence treatments. Treated plants and controls were maintained in a greenhouse for 12 to 14 days, after which time all species were compared to controls and visually evaluated. Plant response ratings, summarized in Table F, are based on a scale of 0 to 100 where 0 is no effect and 100 is complete control. A dash (-) response means no test result.

kochia = assay type: in vivo, Kochia scoparia
Excerpt: as §1, §2

wild mustard = assay type: in vivo, Sinapis arvensis
Excerpt: as §1, §2

common chickweed = assay type: in vivo, Stellaria media
Excerpt: as §1, §2

lambsquarters = assay type: in vivo, Chenopodium album
Excerpt: as §1, §2

littleseed canarygrass = assay type: in vivo, Phalaris minor
Excerpt: as §1, §2

wild oat = assay type: in vivo, Avena fatua
Excerpt: as §1, §2

CCn1nc(C(C)(C)C)cc1C(=O)Nc1cccc(C(N)=O)n1 [Compound 162, 6-[[[3-(1,1-dimethylethyl)-1-ethyl-1H-pyrazol-5-yl]carbonyl]amino]-2-pyridinecarboxamide]
80: Plant response rating (0-100), Mustard, Wild (wild mustard; Postemergence, 125 g ai/ha) | Plant response rating (0-100), Mustard, Wild (wild mustard; Preemergence, 62 g ai/ha) | Plant response rating (0-100), Mustard, Wild (wild mustard; Preemergence, 125 g ai/ha) | Plant response rating (0-100), Chickweed (common chickweed; Postemergence, 125 g ai/ha) | Plant response rating (0-100), Oat, Wild (wild oat; Postemergence, 125 g ai/ha)
60: Plant response rating (0-100), Kochia (kochia; Preemergence, 62 g ai/ha) | Plant response rating (0-100), Mustard, Wild (wild mustard; Postemergence, 62 g ai/ha)
100: Plant response rating (0-100), Bromegrass, Downy (downy bromegrass; 250 g ai/ha) | Plant response rating (0-100), Bromegrass, Downy (downy bromegrass; 500 g ai/ha) | Plant response rating (0-100), Kochia (kochia; Postemergence, 62 g ai/ha) | Plant response rating (0-100), Kochia (kochia; Postemergence, 125 g ai/ha) | Plant response rating (0-100), Kochia (kochia; Postemergence, 250 g ai/ha) | Plant response rating (0-100), Kochia (kochia; Postemergence, 500 g ai/ha) | Plant response rating (0-100), Kochia (kochia; Preemergence, 125 g ai/ha) | Plant response rating (0-100), Kochia (kochia; Preemergence, 250 g ai/ha) | Plant response rating (0-100), Kochia (kochia; Preemergence, 500 g ai/ha) | Plant response rating (0-100), Mustard, Wild (wild mustard; Postemergence, 250 g ai/ha) | Plant response rating (0-100), Mustard, Wild (wild mustard; Postemergence, 500 g ai/ha) | Plant response rating (0-100), Mustard, Wild (wild mustard; Preemergence, 250 g ai/ha) | Plant response rating (0-100), Mustard, Wild (wild mustard; Preemergence, 500 g ai/ha) | Plant response rating (0-100), Chickweed (common chickweed; Postemergence, 250 g ai/ha) | Plant response rating (0-100), Chickweed (common chickweed; Postemergence, 500 g ai/ha) | Plant response rating (0-100), Chickweed (common chickweed; Preemergence, 62 g ai/ha) | Plant response rating (0-100), Chickweed (common chickweed; Preemergence, 125 g ai/ha) | Plant response rating (0-100), Chickweed (common chickweed; Preemergence, 250 g ai/ha) | Plant response rating (0-100), Chickweed (common chickweed; Preemergence, 500 g ai/ha) | Plant response rating (0-100), Lambsquarters (lambsquarters; Postemergence, 62 g ai/ha) | Plant response rating (0-100), Lambsquarters (lambsquarters; Postemergence, 125 g ai/ha) | Plant response rating (0-100), Lambsquarters (lambsquarters; Postemergence, 250 g ai/ha) | Plant response rating (0-100), Lambsquarters (lambsquarters; Postemergence, 500 g ai/ha) | Plant response rating (0-100), Lambsquarters (lambsquarters; Preemergence, 62 g ai/ha) | Plant response rating (0-100), Lambsquarters (lambsquarters; Preemergence, 125 g ai/ha) | Plant response rating (0-100), Lambsquarters (lambsquarters; Preemergence, 250 g ai/ha) | Plant response rating (0-100), Lambsquarters (lambsquarters; Preemergence, 500 g ai/ha) | Plant response rating (0-100), Canarygrass (littleseed canarygrass; Postemergence, 250 g ai/ha) | Plant response rating (0-100), Canarygrass (littleseed canarygrass; Postemergence, 500 g ai/ha) | Plant response rating (0-100), Canarygrass (littleseed canarygrass; Preemergence, 62 g ai/ha) | Plant response rating (0-100), Canarygrass (littleseed canarygrass; Preemergence, 125 g ai/ha) | Plant response rating (0-100), Canarygrass (littleseed canarygrass; Preemergence, 250 g ai/ha) | Plant response rating (0-100), Canarygrass (littleseed canarygrass; Preemergence, 500 g ai/ha) | Plant response rating (0-100), Oat, Wild (wild oat; Postemergence, 250 g ai/ha) | Plant response rating (0-100), Oat, Wild (wild oat; Postemergence, 500 g ai/ha) | Plant response rating (0-100), Oat, Wild (wild oat; Preemergence, 62 g ai/ha) | Plant response rating (0-100), Oat, Wild (wild oat; Preemergence, 125 g ai/ha) | Plant response rating (0-100), Oat, Wild (wild oat; Preemergence, 250 g ai/ha) | Plant response rating (0-100), Oat, Wild (wild oat; Preemergence, 500 g ai/ha)
70: Plant response rating (0-100), Chickweed (common chickweed; Postemergence, 62 g ai/ha) | Plant response rating (0-100), Canarygrass (littleseed canarygrass; Postemergence, 62 g ai/ha) | Plant response rating (0-100), Canarygrass (littleseed canarygrass; Postemergence, 125 g ai/ha) | Plant response rating (0-100), Oat, Wild (wild oat; Postemergence, 62 g ai/ha)
